# In US11046728B2, “Neuroactive steroids, compositions, and uses thereof” (Sage Therapeutics, Inc., priority 2013, dated 2021):
# Legend:
# [1] = test system: male beagle dogs; test: Duration of lateral recumbence in dogs; assay type: in vivo, dog; conditions: intravenous bolus, administered at 5 mg/kg
# Protocol: The plasma pharmacokinetics and a qualitative assessment of sedation were obtained in male beagle dogs according to the following procedure. Dogs were dosed by intravenous bolus dose (60 seconds) via the cephalic vein at doses ranging from 2 to 5 mg/kg in an appropriate vehicle. In order to assess sedation, dogs were gently restrained for dose administration. If decreased muscle tone, limb weakness, or head drop was observed during dose administration, onset of lateral recumbence was recorded. […] Sluggish or incomplete righting to the sternal position qualifies as lateral recumbence. After onset of lateral recumbence, animals were assessed every 5 minutes in the same manner. The duration of lateral recumbence was recorded as the time interval between onset of lateral recumbence and the return to sternal position.
# [2] = test system: male Sprague Dawley rats; test: Loss of righting reflex in rats; assay type: in vivo, rat; conditions: intravenous bolus 5 mg/kg
# Protocol: The plasma pharmacokinetics and a qualitative assessment of sedation were obtained in male Sprague Dawley rats according to the following procedure. Rats were dosed by intravenous bolus dose (60 seconds) via the foot dorsal vein at 5 mg/kg in an appropriate vehicle. In order to assess sedation, rats were gently restrained by hand to a lateral position for dose administration. […] If the animal was unable to return to an upright position, the time was recorded as the onset of loss of righting reflex (LRR). […] Sluggish or incomplete righting twice consecutively within a 30 second interval qualifies as a loss of righting reflex. After onset of LRR, animals were assessed every 5 minutes in the same manner. Recovery of righting reflex is defined as the ability of a rat to right itself completely within 20 seconds of being placed in dorsal recumbency. The duration of LRR is defined as the time interval between LRR and the return of righting reflex.
# [3] = target: T1, GABA receptor α4β3δ (Homo sapiens, UniProt P28472+P48169); test: Patch clamp electrophysiology, manual patch in CHO cells; assay type: cell-based; conditions: 10 μM test article, GABA EC20 = 2 μM, read-out: GABA (α4β3δ) Manual patch in CHO, % efficacy at 10 μM
# T1 construct: expressed in transfected cells; host or cells: CHO cells, transiently transfected
# [4] = target: TBPS binding, rat brain cortical membranes in the presence of 5 μM GABA; test: 35S-TBPS displacement (steroid inhibition of TBPS binding); conditions: read-out: 35S-TBPS Radioligand Displacement (IC50)
# Protocol: TBPS binding assays using rat brain cortical membranes in the presence of 5 μM GABA has been described (Gee et al, J. Pharmacol. Exp. Then 1987, 241, 346-353; Hawkinson et al, Mol. Pharmacol. 1994, 46, 977-985). Briefly, cortices are rapidly removed following decapitation of carbon dioxide-anesthetized Sprague-Dawley rats (200-250 g). The cortices are homogenized in 10 volumes of ice-cold 0.32 M sucrose using a glass/teflon homogenizer and centrifuged at 1500×g for 10 min at 4° C. The resultant supernatants are centrifuged at 10,000×g for 20 min at 4° C. to obtain the P2 pellets. The P2 pellets are resuspended in 200 mM NaCl/50 mM Na—K phosphate pH 7.4 buffer and centrifuged at 10,000×g for 10 min at 4° C. This washing procedure is repeated twice and the pellets are resuspended in 10 volumes of buffer. Aliquots (100 μL) of the membrane suspensions are incubated with 3 nM [^35S]-TBPS and 5 μL, aliquots of test drug dissolved in dimethyl sulfoxide (DMSO) (final 0.5%) in the presence of 5 μM GABA. The incubation is brought to a final volume of 1.0 mL with buffer. Nonspecific binding is determined in the presence of 2 μM unlabeled TBPS and ranged from 15 to 25%. Following a 90 min incubation at room temp, the assays are terminated by filtration through glass fiber filters (Schleicher and Schuell No. 32) using a cell harvester (Braudel) and rinsed three times with ice-cold buffer. Filter bound radioactivity is measured by liquid scintillation spectrometry. Non-linear curve fitting of the overall data for each drug averaged for each concentration is done using Prism (GraphPad). […] The concentration of test compound producing 50% inhibition (IC50) of specific binding and the maximal extent of inhibition (Imax) are determined for the individual experiments with the same model used for the overall data and then the means±SEMs of the individual experiments are calculated.
# Various compounds are or can be screened to determine their potential as modulators of ^35S-TBPS binding in vitro. These assays are or can be performed in accordance with the above discussed procedures.
# [5] = target: T2, GABA receptor α1β2γ2 (Homo sapiens, UniProt P14867+P47870); test: Patch clamp electrophysiology, Qpatch in Ltk cells; assay type: cell-based; conditions: 10 μM test article, GABA EC20 = 2 μM, read-out: GABA (α1β2γ2) Qpatch in Ltk, % efficacy at 10 μM
# T2 construct: expressed in transfected cells; host or cells: LTK cells, stably transfected
# T2 sequence (P14867 28-456): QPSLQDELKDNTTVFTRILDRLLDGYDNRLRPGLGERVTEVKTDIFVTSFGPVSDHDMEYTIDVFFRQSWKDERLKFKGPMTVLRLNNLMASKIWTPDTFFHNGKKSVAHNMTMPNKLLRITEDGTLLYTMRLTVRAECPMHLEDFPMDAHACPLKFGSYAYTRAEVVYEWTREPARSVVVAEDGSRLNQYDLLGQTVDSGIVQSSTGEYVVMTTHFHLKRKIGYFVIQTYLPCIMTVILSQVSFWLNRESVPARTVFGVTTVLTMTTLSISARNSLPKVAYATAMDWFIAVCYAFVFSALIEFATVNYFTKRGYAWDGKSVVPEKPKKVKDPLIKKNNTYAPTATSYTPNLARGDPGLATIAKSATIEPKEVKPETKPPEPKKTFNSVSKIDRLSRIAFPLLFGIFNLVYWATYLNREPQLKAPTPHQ
# T2 sequence (P47870 25-512 limits assumed): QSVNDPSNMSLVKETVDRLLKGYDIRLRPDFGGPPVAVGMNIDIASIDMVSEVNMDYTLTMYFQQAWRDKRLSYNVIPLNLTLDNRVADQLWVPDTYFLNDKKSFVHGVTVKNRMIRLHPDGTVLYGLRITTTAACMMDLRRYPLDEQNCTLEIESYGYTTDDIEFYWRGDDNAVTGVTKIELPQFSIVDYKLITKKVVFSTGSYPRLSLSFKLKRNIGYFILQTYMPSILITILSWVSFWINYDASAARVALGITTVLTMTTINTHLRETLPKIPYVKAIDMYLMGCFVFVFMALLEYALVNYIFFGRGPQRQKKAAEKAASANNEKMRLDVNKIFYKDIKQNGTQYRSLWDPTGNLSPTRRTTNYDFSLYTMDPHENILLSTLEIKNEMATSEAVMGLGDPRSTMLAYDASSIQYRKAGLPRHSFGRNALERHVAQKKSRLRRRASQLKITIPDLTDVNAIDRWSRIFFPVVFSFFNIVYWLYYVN
# T2 sequence (P18507 40-475 partner): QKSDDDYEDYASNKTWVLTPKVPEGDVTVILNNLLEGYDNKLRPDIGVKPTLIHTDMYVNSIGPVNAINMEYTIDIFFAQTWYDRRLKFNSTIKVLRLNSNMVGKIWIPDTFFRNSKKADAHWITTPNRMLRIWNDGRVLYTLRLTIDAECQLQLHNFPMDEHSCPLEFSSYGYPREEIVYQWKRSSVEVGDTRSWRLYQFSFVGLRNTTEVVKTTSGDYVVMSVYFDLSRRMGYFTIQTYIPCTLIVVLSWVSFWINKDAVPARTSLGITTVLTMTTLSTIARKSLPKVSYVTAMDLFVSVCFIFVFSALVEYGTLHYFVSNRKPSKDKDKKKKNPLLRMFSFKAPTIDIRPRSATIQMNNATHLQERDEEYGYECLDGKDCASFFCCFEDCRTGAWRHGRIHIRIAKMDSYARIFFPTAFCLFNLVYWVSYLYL
# T1 sequence (P48169 36-554): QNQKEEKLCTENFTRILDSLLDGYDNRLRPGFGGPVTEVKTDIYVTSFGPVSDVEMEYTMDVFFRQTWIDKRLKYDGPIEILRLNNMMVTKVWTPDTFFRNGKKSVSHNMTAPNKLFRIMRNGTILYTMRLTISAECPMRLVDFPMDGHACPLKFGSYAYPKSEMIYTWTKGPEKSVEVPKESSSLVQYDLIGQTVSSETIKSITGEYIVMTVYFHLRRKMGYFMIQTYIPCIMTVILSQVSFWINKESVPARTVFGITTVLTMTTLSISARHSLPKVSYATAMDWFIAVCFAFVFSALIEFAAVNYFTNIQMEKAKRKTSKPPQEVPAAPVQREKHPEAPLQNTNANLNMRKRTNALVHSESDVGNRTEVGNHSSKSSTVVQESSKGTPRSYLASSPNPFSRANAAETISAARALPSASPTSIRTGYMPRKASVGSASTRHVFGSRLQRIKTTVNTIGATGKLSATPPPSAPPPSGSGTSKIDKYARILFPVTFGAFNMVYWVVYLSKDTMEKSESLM
# T1 sequence (P28472 26-473): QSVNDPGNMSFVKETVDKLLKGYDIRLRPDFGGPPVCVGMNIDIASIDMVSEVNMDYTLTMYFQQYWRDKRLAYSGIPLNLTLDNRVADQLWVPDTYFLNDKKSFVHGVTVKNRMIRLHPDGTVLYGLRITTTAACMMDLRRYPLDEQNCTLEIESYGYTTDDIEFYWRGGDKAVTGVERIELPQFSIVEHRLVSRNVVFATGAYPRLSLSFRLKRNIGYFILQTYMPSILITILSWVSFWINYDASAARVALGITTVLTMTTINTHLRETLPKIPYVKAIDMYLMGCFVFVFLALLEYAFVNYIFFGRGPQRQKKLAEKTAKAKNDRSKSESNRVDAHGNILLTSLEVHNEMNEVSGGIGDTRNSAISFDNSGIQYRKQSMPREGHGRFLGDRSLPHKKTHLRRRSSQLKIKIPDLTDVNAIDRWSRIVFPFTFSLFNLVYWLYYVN
# T1 sequence (O14764 25-452 partner): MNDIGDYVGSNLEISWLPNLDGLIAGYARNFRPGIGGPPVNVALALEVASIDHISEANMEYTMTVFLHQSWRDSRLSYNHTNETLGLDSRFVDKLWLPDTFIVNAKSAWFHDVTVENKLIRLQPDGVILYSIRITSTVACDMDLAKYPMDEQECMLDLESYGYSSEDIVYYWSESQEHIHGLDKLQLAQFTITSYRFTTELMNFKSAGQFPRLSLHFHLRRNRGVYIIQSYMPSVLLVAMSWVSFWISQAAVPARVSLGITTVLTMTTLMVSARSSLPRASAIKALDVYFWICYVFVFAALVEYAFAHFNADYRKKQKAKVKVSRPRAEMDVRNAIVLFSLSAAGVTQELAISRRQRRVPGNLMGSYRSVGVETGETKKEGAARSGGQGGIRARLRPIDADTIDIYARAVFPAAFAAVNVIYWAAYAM
SMILES,Duration of Lateral Recumbence (min) [1],Duration of LRR (min) [2],Emax at 10 µM [3] [%],IC50 [4] [nM],Emax at 10 µM [5] [%]
CO[C@H]1C[C@@]2(C)[C@@H](CC[C@H]3[C@@H]4CC[C@H](C#N)[C@@]4(C)CC(=O)[C@@H]32)C[C@@H]1O [Compound 3],A (“A” indicates the duration to be >20 minutes),A (“A” indicates the duration of LRR to be <10 min),100 to 500,> 500,100 to 500
CCCO[C@H]1C[C@@]2(C)[C@@H](CC[C@@H]3[C@@H]2CC[C@]2(C)[C@@H](C#N)CC[C@@H]32)C[C@@H]1O [Compound 16],,C (“C” indicates the duration of LRR to be >20 minutes),100 to 500,< 10,> 500
CCO[C@H]1C[C@@]2(C)[C@@H](CC[C@H]3[C@@H]4CC[C@H](C#N)[C@@]4(C)CC(=O)[C@@H]32)C[C@@H]1O [Compound 19],A (“A” indicates the duration to be >20 minutes),B (“B” indicates the duration of LRR to be 10-20 minutes),,50 to 100,> 500
CO[C@H]1C[C@]2(C)[C@@H](C#N)CC[C@H]2[C@@H]2CC[C@H]3C[C@H](O)CC[C@]3(C)[C@H]21 [Compound 31],A (“A” indicates the duration to be >20 minutes),B (“B” indicates the duration of LRR to be 10-20 minutes),100 to 500,10 to 50,> 500
